DCX data for one sequence are collected here from US20180318383A1, “PEPTIDE HAVING NEURONAL LOSS PREVENTION AND REGENERATION EFFECTS, AND COMPOSITION CONTAINING SAME” (GEMVAX & KAEL CO., LTD., priority 2015, published 2018).

The subject of this assay is DCX. Put plainly: DCX expression in 3XTg-AD mice (western blotting, immunostaining). The following applies: hippocampus and whole brain; s.c. three times a week for two months; vs control and Donepezil, same amount. It counts as in vivo. On the procedure: To test the efficacy of PEP1 on AD, AD transgenic mice (3XTg-AD) were purchased from Jackson Laboratory. Genetic characteristics of the transgenic mice are as follows: B6; 129-Psen1tm1Mpm Tg(APPSwe, tauP301L)1Lfa/Mmjax. […] One week after mice were confirmed as pregnant, new mice were delivered and weaned for 3 weeks. Two weeks later, mature mice were obtained.
During the preliminary breeding and the entire period of the experiment, a temperature was maintained at 23±2° C. and a relative humidity was maintained at 60±10%, and then the mice were raised under a 12-hour dark/light cycle. Experimental animals were divided into five groups, and each group included 10 animals. The divided experimental groups are as follows. […]
The PEP1, physiological saline, donepezil and scramble peptide were subcutaneously injected at each concentration three times a week for two months from the age of 12 months, and then two months after the injection, cognitive/memory behavior tests (passive avoidance test and Y maze test) were performed to examine a degree of improvement in cognitive function and memory function. After the brain was extracted to separate the hippocampus, the amounts of amyloid beta in the hippocampus and the whole brain, and the amounts of an amyloid beta oligomer and NFT generated by tau hyperphosphorylation were determined by western blotting and immunostaining. […]
(In western blotting, separated proteins are transferred to a membrane and probed.)

Consider “EARPALLTSRLRFIPK (homo sapiens) [PEP1, hTERT-derived peptide consisting of 16 amino acids, telomerase location [611-626]]”, for which the DCX entry is reported as “increased”.
